# Measurements reported in patent US20220354818A1, “METHODS FOR TREATING BRAIN INJURY OR COGNITIVE DYSFUNCTION BY PHARMACOLOGICAL ENHANCMENT OF M-TYPE POTASSIUM ION CURRENTS IN NEURONS” (Advanced Neuroresearch Therapeutics LLC, priority 2019, published 2022).
# “Also recorded” adds a separate entry of the source.
# Legend:
# Format in all cases: in vivo, mouse
# [1] = tested on: mice subjected to CCCI, subthreshold pilocarpine; assay: Pilocarpine-induced seizure susceptibility after CCCI; details: three subthreshold pilocarpine doses on fifth day after CCCI; RTG 1.2 mg/kg i.p. 30 min post-TBI
# Procedure: Pilocarpine is a cholinomimetic drug widely used as a chemo-convulsant in animal models to induce status epilepticus. To minimize pilocarpine-induced peripheral cholinergic effects and mortality, animals were pretreated with scopolamine methyl nitrate (i.p. 1 mg/kg; MP Biomedicals) 30 minutes prior to pilocarpine injection. Both drugs were diluted in sterile 0.9% (w/v) saline. Immediately after pilocarpine injection, cortical activity was monitored for 24 hours by video/EEG recording.
# neurons = assay: Fluoro Jade B staining of neuronal cell death after CCCI; details: six days after CCCI; RTG 30 minutes post-TBI
# Procedure: Flouro Jade B (FJB) staining was performed to assay neuronal cell death histologically and detect the degree of neurodegeneration six days after CCCI. Staining was performed as previously described.
# Six days after CCCI, mice were euthanized via transcardial perfusion with PBS followed by 4% (w/v) paraformaldehyde (PFA). Brains were removed, post-fixed overnight in 4% PFA (Electron Microscopy Sciences), transferred into 30% (w/v) sucrose in PBS and kept at 4° C. for 3 days. […]
# Ipsilateral cortical images (fluorescence images of FJB and counterstained DAPI) were taken by a Nikon Eclipse Ti with camera coolSNAP HQ^2 (confocal) microscope using a 20× objective (N.A. 0.75). Fluorescence excitation-emission for Fluoro Jade and DAPI were 470/40-500 and 350/50-460, respectively.
# Cell count was obtained by nonbiased automatic quantification with ImageJ/FIJI (NIH, USA) particle analysis. […] After background subtraction and image threshold (1.05%), FIB positive cells were detected using the “analyze particles” (size: 20-100, circularity: 0.00-1.00) function of ImageJ. These parameters determined the pixel size and circularity of the acceptable ROIs and were used to identify cell bodies automatically.
# [2] = tested on: TAR DNA-binding protein 43 (TDP-43); assay: TDP-43 immunoblotting and immunohistochemistry after rbTBI (CTE marker)
# Procedure: Levels of TDP-43 were first analyzed by immunoblotting experiments performed as previously described. Cortical and hippocampal samples were collected when the mice were 26-28 months of age.
# Complementary to the immunoblot experiments, immunohistochemistry staining of TDP-43 was performed as previously described. Left hemisphere samples were removed and fixed overnight in 4% paraformaldehyde (Electron Microscopy Sciences). Subsequently, samples were transferred into 30% (w/v) sucrose in PBS and kept for 3 days at 4° C. before they were frozen in Tissue-Plus O.C.T. Compound (Fisher Scientific) using 2-methylbutane immersed in dry ice. Samples were stored at −80° C. until cross-sectioning.
# 20 μm thick coronal sections of the prefrontal cortex (PFC) were mounted on Superfrost Plus microscope slides (Fisher Scientific) previously coated with gelatin (Sigma). […] Images were taken in the PFC layer II at 40× magnification using an iXon ultra EMCCD Andor camera attached to a Nikon Eclipse TE2000-U microscope, with a fixed exposition time of 200 ms, in the 16-bit readout mode, with 2 MHz speed, and a pre-amplifier gain of 3. The mean and maximum fluorescence signal was obtained by automatic quantification with ImageJ (National Institutes of Health, USA). […]
# Samples used in the immunoblotting and the immunohistochemistry experiments were from the EEG-monitored mice and from the above independent cohort. […]
# [3] = tested on: mice subjected to one blunt TBI, pentylenetetrazol (PTZ); assay: PTZ-induced seizure susceptibility after one blunt TBI (CCCI); details: RTG at 1 mg/kg; PTZ 35 mg/kg s.c. fifth day post-TBI
# Description: Stimulation with PTZ induced the occurrence of clonic and tonic-clonic seizures in TBI-subjected mice.
# [4] = tested on: mice subjected to one blunt TBI, PTZ; assay: Treatment window study: PTZ-induced seizure duration after one blunt TBI
# Procedure: Mice were video-EEG monitored for 24 hours after stimulation with a normally sub-seizure threshold dose of PTZ (35 mg/kg; s.c.) administered on the fifth day post-TBI, which caused the mice to respond with prolonged seizures. […] A TBI cohort (vehicle only) was also assessed for control purposes.
compound,measurement,setting,value
"CCOC(=O)Nc1ccc(NCc2ccc(F)cc2)cc1N [RTG, 2-amino-4-(4-fluorobenzylamino)-1-ethoxycarbonylaminobenzene]",pilocarpine-induced abnormal spike activity,[1],significant reduction of pilocarpine-induced abnormal spike activity
same,Fluoro Jade B labeling of neurons (neuronal death),neurons,significantly higher FJB staining as compared to TBI+RTG cortical slices; also recorded: labeling of brain neurons by FJB was minimal
same,TDP-43 expression in the cerebral cortex,"[2]; 2 years after TBIs, immunoblot and immunofluorescence",reduced TDP-43 as compared to the Blast cohort
same,phosphorylation levels of TDP-43,[2]; cerebral cortex,"Neither TBI, nor RTG treatment, changed the phosphorylation levels of TDP-43"
same,occurrence of PTZ-induced seizures,[3],completely blocked the occurrence of PTZ-induced seizures
same,PTZ-induced seizure duration,[4]; RTG 1 mg/kg i.p. at 1-hour post-TBI,significantly reduced induced seizure duration
same,PTZ-induced seizure duration,[4]; RTG 1 mg/kg i.p. at 2 hours and 6 hours post-TBI,Lesser effects were observed
